Where two headings read alike, the source gives them in different places.
Experiments:
Sprague-Dawley rats = assay: Normoxic 20% CO2 panic provocation model
Protocol: Experiments were performed in male Sprague-Dawley rats (300–350 g, Harlan Laboratory, Indianapolis, IN, United States). […] Following exposure to hypercarbic and atmospheric air gasses, rats were immediately placed in the open-field box for a 5 min period then assessed in SI test for 5 min. The data reported are changes in activity, expressed in 1 min bins, relative to the average of the baseline measurement (t-5 to t-1 minute) from each rat.
Each dependent variable for assessment of behavior and radiotelemetry data was respectively analyzed using a one way ANOVA, or a one way ANOVA with repeated measures with drug treatment as the main factor and time as repeated measures. In the presence of significant main effects post hoc tests were conducted using a parametric Fisher’s LSD test. Within subjects time effects were also assessed using a Dunnett’s one way analysis with the minute prior to the i.v infusion used as the control. Statistical significance was accepted with p < 0.05. All statistical analyses were carried out using SPSS 13.0 (SPSS, Inc., Chicago, IL, United States) and all graphs were generated using SigmaPlot 2001 (SPSS, Inc., Chicago, IL, United States) or Graphpad Prizm 7 Software, Inc. for Windows.
Activation of the OX1R is a critical component of CO2-mediated anxiety and hypertension ([Johnson et al., 2012a]). Exposing rats to higher concentrations of hypercarbic gas (e.g., 20% CO2) depolarizes OX neurons by interacting with pH/ CO2 chemosensitive K^+ channels ([Williams et al., 2007]), and also causes subsequent release of orexin at post-synaptic targets in the brain and spinal cord to mobilize anxiety-like behavior, hypertension, and increases ventilatory responses ([Johnson et al., 2012c], [2015]). JNJ-54717793 was tested in a rat model of CO2-induced panic.

human OX1R = biological target: T1, human OX1R (Homo sapiens, UniProt O43613); assay: Human OX1R competitive radioligand binding ([3H]SB-674042); design: expressed in transfected cells; host or cells: clonal CHO-K1 cells
T1 sequence (O43613 1-425): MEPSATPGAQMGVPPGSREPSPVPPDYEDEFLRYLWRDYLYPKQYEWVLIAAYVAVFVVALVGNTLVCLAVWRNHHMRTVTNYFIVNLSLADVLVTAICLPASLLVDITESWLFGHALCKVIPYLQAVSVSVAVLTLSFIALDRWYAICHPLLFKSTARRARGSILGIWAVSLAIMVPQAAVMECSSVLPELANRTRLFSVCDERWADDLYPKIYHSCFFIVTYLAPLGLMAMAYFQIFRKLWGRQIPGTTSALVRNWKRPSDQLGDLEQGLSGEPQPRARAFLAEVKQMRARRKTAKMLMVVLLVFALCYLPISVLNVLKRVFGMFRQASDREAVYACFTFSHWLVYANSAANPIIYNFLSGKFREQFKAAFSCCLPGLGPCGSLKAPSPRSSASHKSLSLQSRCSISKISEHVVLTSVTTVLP
Protocol: (§1) Human or rat OX1R binding was measured in competitive radioligand binding assays using [^3H]SB-674042 (1-(5-(2-fluoro-phenyl)-2-methyl-thiazol-4-yl)-1-((S)-2-(5-phenyl-(1,3,4)oxadiazol-2-ylmethyl)-pyrrolidin-l-yl)-methanone) as a tracer (4 nM, specific activity 35 Ci/mmol) as previously described ([Langmead et al., 2004]). Cell membranes were prepared from clonal CHO K1 cells transfected with the human OX1R or clonal HEK-293 cells transfected with the rat OX1R. Dilutions of test compounds were made in Dulbecco’s PBS from 10 mM stocks dissolved in dimethyl sulfoxide. After a 60 min incubation at room temperature, binding reactions were filtered. The membranes were counted in a scintillation counter. Non-specific binding was determined in the presence of 10 μM almorexant. Affinities of compounds for the human OX2R were measured by competitive radioligand binding using tritiated N-ethyl-2-[(6-methoxy-pyridin-3-yl)-(toluene-2-sulfonyl)-amino]-N-pyridin-3-ylmethyl-acetamide (EMPA) (2 nM, specific activity 27 Ci/mmol) ([Malherbe et al., 2009]). Cell membranes were prepared from a stable pool of HEK-293 cells transfected with the human OX2R. Non-specific binding was determined with 10 μM almorexant.
(§2) The Ki of the test compounds was calculated based on non-linear regression (one site competition) using Graphpad Prism. […]

rat OX1R = biological target: T2, rat OX1R (Rattus norvegicus, UniProt P56718); assay: Rat OX1R competitive radioligand binding ([3H]SB-674042); design: expressed in transfected cells; host or cells: clonal HEK-293 cells
T2 sequence (P56718 1-416): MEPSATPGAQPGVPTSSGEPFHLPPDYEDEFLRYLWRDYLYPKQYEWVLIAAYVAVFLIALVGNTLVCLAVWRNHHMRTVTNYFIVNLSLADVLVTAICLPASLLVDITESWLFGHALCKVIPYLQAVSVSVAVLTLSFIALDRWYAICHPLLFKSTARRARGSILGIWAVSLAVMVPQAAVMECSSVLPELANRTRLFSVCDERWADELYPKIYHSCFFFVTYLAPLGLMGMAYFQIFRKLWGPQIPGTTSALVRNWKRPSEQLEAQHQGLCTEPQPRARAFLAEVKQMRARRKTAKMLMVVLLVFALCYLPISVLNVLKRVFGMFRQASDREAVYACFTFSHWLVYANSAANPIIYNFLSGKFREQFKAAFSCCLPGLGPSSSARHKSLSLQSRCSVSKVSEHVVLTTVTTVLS
Protocol: as §1, §2

[1] = biological target: T3, OX1R in rat brain (tenia tecta) (Rattus norvegicus, UniProt P56718); assay: Ex vivo OX1R receptor occupancy autoradiography in rat brain (tenia tecta), with plasma bioanalysis; settings: 10 mg/kg subcutaneous; for receptor occupancy at 10 mg/kg: sc
T3 construct: Twenty micron thick tissue sections at the level of the tenia tecta were prepared for autoradiography; from tissue; host or cells: brain sections (tenia tecta) of male Sprague-Dawley rats
T3 sequence (P56718 1-416): T2 sequence (P56718 1-416)

O=C(c1cccc(F)c1-c1ncccn1)N1[C@@H]2CC[C@H]1[C@H](Nc1cnc(C(F)(F)F)cn1)C2 [JNJ-54717793, (1S,2R,4R)-7-([(3-fluoro-2-pyrimidin-2-ylphenyl)carbonyl]-N-[5-(trifluoromethyl)pyrazin-2-yl]-7-azabicyclo[2.2.1]heptan-2-amine)]
CO2-induced pressor responses (MAP) (Sprague-Dawley rats; rats, 3 mg/kg p.o.): at one time point | CO2-induced pressor responses (MAP) (Sprague-Dawley rats; rats, 30 mg/kg p.o.): attenuated CO2-induced pressor responses at multiple time points | increases in locomotor activity post CO2 (Sprague-Dawley rats; rats, 3, 10, 30 mg/kg p.o.): no effect | CO2-induced bradycardia responses (HR) (Sprague-Dawley rats; rats, 10 and 30 mg/kg p.o.): attenuated CO2-induced bradycardia responses at multiple time points | center or middle times in the open field test (Sprague-Dawley rats; rats, after CO2 challenge): Nor was there an effect | sedative effects (line crossings) in the open field test (Sprague-Dawley rats; rats, after CO2 challenge): no apparent sedative effects | CO2-induced anxiety behavior in the SI test (Sprague-Dawley rats; rats, highest dose (30 mg/kg p.o.)): attenuated/blocked | Ki (human OX1R): 14.8 nM | binding selectivity at the human OX1R compared to the human OX2R (human OX1R; hOX1R versus hOX2R): 50 fold | Ki (rat OX1R): 14.5 nM | plasma concentration for maximal receptor occupancy [1]: 2211 ± 339 ng/mL | receptor occupancy at 10 mg/kg ([1]; 2 h time point, read-out: OX1R occupancy): 65% | receptor occupancy at 10 mg/kg ([1]; observed at 30 min, read-out: maximal OX1R occupancy): 83 ± 7%

From article PMC5465257, “Evaluation of JNJ-54717793 a Novel Brain Penetrant Selective Orexin 1 Receptor Antagonist in Two Rat Models of Panic Attack Provocation” (Frontiers in Pharmacology, 2017)
